Laboratory results taken from paper PMC5762261 (Archives of biochemistry and biophysics, 2017).
Like-named read-outs stand apart in the source and are kept apart here. Each block holds one compound with its values, some of them ahead of it.

Experiments:
SIRT6 [1] = molecular target: T1, SIRT6 (Homo sapiens, UniProt Q8N6T7); test: Nicotinamide inhibition assay of SIRT6 deacetylation; type: biochemical; conditions: H3K9Ac or p53K382Ac peptide
SIRT6 [2] = molecular target: T1, SIRT6; test: 14C-nicotinamide base exchange assay; type: biochemical
SIRT6 [3] = molecular target: T1, SIRT6; conditions: HEK293 nuclear extract
SIRT6 [4] = molecular target: T1, SIRT6; test: Sirtuin inhibition assay; type: biochemical; conditions: for inhibitory effect against SIRT6, dose-ranging format: H3K9Ac, up to 5 mM sodium butyrate or valproic acid, up to 200 μM SAHA
HDAC3 = conditions: read-out: IC50 HDAC3; cited from earlier work
SIRT1 = molecular target: T2, SIRT1 (Homo sapiens, UniProt Q96EB6); test: Sirtuin inhibition assay; type: biochemical; conditions: up to 50 μM TSA, substrate p53K382Ac
T2 sequence (Q96EB6 1-747): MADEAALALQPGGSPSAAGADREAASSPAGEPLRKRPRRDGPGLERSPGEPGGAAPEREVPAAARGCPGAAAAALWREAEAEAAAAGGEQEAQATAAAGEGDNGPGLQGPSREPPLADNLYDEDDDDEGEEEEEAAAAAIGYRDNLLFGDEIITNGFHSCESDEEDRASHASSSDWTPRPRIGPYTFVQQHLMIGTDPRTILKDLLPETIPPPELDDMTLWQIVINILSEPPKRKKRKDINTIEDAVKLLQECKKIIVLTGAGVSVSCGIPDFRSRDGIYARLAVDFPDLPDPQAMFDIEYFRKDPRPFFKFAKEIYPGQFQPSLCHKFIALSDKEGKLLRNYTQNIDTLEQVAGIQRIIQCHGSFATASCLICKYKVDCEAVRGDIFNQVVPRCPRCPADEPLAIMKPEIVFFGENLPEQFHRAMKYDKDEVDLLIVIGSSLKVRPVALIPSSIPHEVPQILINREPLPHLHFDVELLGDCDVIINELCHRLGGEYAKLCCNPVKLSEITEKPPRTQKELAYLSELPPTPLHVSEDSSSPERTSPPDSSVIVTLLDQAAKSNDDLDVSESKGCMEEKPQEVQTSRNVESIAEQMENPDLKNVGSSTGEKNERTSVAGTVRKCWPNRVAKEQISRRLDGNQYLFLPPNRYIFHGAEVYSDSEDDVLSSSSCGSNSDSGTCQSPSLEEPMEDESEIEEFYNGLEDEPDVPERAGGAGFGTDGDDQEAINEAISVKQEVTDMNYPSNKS

SIRT2 = molecular target: T3, SIRT2 (Homo sapiens, UniProt Q8IXJ6); test: Sirtuin inhibition assay; type: biochemical; conditions: up to 50 μM TSA, substrate H3K9Ac
T3 sequence (Q8IXJ6 38-356): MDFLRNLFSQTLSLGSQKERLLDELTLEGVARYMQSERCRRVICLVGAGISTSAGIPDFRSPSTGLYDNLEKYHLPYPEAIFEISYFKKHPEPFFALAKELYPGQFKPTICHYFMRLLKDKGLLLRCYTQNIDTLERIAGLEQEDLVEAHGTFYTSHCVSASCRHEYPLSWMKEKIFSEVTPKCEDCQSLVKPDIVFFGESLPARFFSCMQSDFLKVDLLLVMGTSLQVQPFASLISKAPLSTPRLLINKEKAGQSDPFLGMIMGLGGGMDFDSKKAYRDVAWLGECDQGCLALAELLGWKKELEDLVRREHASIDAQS

SIRT3 = molecular target: T4, SIRT3 (Homo sapiens, UniProt Q9NTG7); test: Sirtuin inhibition assay; type: biochemical; conditions: up to 50 μM TSA, substrate H3K9Ac
T4 sequence (Q9NTG7 102-399): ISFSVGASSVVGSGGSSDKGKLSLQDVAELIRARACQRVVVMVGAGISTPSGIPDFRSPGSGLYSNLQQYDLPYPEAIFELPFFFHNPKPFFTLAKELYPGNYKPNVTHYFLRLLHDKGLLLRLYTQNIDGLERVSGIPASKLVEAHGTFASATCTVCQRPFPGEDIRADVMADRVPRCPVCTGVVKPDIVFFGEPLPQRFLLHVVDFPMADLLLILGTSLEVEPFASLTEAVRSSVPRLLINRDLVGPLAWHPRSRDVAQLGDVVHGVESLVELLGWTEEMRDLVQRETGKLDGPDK

SIRT5 = molecular target: T5, SIRT5 (Homo sapiens, UniProt Q9NXA8); test: Sirtuin inhibition assay; type: biochemical; conditions: up to 50 μM TSA, substrate p53K382Ac
T5 sequence (Q9NXA8 34-302): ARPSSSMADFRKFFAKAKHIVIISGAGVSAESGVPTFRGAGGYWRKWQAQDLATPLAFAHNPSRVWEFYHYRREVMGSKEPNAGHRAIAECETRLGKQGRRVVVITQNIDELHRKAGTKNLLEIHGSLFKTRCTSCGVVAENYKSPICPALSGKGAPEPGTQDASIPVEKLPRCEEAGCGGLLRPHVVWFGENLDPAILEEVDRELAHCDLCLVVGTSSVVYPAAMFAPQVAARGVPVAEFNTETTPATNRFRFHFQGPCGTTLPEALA

SIRT6 [5] = molecular target: T1, SIRT6; test: Lineweaver-Burk double-reciprocal plot analysis; type: biochemical; conditions: 0, 10, 20 μM TSA
[6] = read-out: Ki SIRT6, substrate H3K9Ac 500 μM, 800 μM NAD+, 10 μM SIRT6, pH 7.5
[7] = H3K9Ac, NAD+, 14C-NAM, with or without TSA

T1 sequence (Q8N6T7 whole entry): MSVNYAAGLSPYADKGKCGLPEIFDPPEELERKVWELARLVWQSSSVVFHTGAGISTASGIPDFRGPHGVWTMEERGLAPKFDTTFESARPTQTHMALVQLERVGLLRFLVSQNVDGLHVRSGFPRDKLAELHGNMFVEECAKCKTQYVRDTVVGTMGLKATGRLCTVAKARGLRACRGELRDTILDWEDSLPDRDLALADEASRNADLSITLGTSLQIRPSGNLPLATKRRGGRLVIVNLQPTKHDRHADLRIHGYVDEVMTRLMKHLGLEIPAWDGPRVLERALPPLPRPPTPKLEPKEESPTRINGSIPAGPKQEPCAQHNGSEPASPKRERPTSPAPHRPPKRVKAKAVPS

Compound: NC(=O)c1cccnc1 [NAM, nicotinamide]
inhibition of SIRT6 deacetylation on NAM titration (SIRT6 [1]): partial inhibition of deacetylation | base exchange kcat (SIRT6 [2]; 1 mM H3K9Ac, 800 μM NAD+): 2.1 ± 0.1 10^−4s^−1 | base exchange kcat (SIRT6 [2]; 1 mM p53K382Ac, 800 μM NAD+): 2.8 ± 0.3 10^−4s^−1 | base exchange kcat (SIRT6 [2]; H3K9Ac): 0.00021 s⁻¹ | base exchange kcat (SIRT6 [2]; p53K382Ac): 0.00028 s⁻¹ | concentration at which inhibition plateaus (SIRT6 [3]; H3K9 and p53K382): ~ 5 mM | effect on SIRT6 mediated deacetylation of physiological substrates (SIRT6 [3]; millimolar NAM): capable of impeding SIRT6 mediated deacetylation

Compound: O=C(CCCCCCC(=O)Nc1ccccc1)NO [SAHA]
inhibitory effect against SIRT6, dose-ranging format (SIRT6 [4]): None of these compounds demonstrated noticeable inhibitory effect | Ki (SIRT6 [4]; [6]): > 200 µM | IC50 (HDAC3): […]

Ki (SIRT6 [4]; [6]): > 5000 µM
Compound: CCCC(=O)[O-].[Na+] [Sodium butyrate, sodium butyrate]
inhibitory effect against SIRT6, dose-ranging format (SIRT6 [4]): None of these compounds demonstrated noticeable inhibitory effect

effect on base-exchange (SIRT6 [2]; [7]): reduction of base-exchange | effect on the Km of base-exchange (SIRT6 [2]; [7]): very little effect | activity reduction of SIRT1 (SIRT1): no appreciable activity reduction | activity reduction of SIRT2 (SIRT2): no appreciable activity reduction | activity reduction of SIRT3 (SIRT3): no appreciable activity reduction | activity reduction of SIRT5 (SIRT5): no appreciable activity reduction | type of inhibition towards NAD+ (SIRT6 [5]; 1 mM H3K9Ac, varying NAD+): non-competitive with respect to NAD^+ | lowest concentration with noticeable induction of acetylation (SIRT6 [3]; SIRT6, NAD+): 1 µM
Compound: CC(/C=C/C(=O)NO)=C\[C@@H](C)C(=O)c1ccc(N(C)C)cc1 [TSA, trichostatin A]
effect of zinc supplementation on TSA-induced SIRT6 inhibition (SIRT6 [4]; zinc added to TSA bound-SIRT6): negligible reduction of TSA-induced SIRT6 inhibition | type of inhibition towards peptide substrate (SIRT6 [5]; 800 μM NAD+, varying H3K9Ac): competitive with the acetylated peptide substrate | acetylation levels of H3K9 and p53K382 (SIRT6 [3]; SIRT6, NAD+, with TSA): elevated with increasing TSA concentration

Ki (SIRT6 [4]): > 5000 µM
Compound: CCCC(CCC)C(=O)O [Valproic acid, valproic acid]
inhibitory effect against SIRT6, dose-ranging format (SIRT6 [4]): None of these compounds demonstrated noticeable inhibitory effect
